According to patent publication US20080070865A1, “TRIPHENYLPHOSPHINE OXIDE DERIVATIVES AND USES THEREOF” (Redpoint Bio Corporation, priority 2006, published 2008):
pIC50: −log10 of the molar value.

target: T1, human TRPM5 ion channel (Homo sapiens, UniProt Q9NZQ8); assay: TRPM5 FLIPR membrane potential assay; format: cell-based; conditions: HEK293 cells stably expressing human TRPM5, membrane potential dye, stimulation with 3 μM ATP
T1 construct: expressed in transfected cells
T1 sequence (Q9NZQ8 1-1165): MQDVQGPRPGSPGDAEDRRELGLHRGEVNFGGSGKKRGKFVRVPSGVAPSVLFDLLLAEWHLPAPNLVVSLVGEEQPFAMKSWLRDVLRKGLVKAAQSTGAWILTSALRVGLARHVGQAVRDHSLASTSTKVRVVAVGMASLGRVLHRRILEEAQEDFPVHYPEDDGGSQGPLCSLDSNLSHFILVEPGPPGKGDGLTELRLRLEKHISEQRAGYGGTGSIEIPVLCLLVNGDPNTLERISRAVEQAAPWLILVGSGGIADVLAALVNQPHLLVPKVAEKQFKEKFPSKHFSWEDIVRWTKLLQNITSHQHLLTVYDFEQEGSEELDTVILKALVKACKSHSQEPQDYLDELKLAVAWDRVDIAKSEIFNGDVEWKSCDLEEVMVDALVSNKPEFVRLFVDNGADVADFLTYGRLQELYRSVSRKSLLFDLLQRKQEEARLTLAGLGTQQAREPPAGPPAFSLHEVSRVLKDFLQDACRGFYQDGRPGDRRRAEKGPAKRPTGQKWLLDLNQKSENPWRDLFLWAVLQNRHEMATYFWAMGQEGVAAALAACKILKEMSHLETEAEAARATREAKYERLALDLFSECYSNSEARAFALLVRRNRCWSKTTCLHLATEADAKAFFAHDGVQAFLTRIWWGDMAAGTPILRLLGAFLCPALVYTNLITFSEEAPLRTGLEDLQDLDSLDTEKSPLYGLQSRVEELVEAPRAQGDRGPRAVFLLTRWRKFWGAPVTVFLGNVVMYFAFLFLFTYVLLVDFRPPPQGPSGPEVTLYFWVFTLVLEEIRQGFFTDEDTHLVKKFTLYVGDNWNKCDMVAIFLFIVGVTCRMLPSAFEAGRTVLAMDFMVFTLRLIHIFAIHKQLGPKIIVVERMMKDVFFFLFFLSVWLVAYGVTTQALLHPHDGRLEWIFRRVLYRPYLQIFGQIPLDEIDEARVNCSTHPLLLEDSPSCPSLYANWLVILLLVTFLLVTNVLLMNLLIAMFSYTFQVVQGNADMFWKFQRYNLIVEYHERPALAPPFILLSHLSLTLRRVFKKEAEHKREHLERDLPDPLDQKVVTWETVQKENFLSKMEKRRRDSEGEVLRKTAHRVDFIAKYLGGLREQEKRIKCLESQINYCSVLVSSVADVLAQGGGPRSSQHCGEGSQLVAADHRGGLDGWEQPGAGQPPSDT
Procedure: The activity of human TRPM5 ion channel was measured in live cells on a fluorescent imaging plate reader (FLIPR). The basis of the assay (shown in FIG. 1) is the calcium-dependent activation of the ion channel which occurs by activation of a G-protein coupled receptor (GPCR). GPCR activation by an appropriate agonist causes a transient increase in […] Ca^2+ ion concentration which in turn causes the ion channel to open, letting in Na^+ ions. This influx causes a change in the membrane potential of the cell which can be monitored as a change in the fluorescent signal from voltage-dependent (membrane potential) fluorescent dyes. […] For the screening assay, the human TRPM5 gene was cloned, put into HEK293 cells, and a stable, high expression clone was used for screening. Cells were grown in standard media at 37° C. The day before screening, the cells were removed from flasks and added to 384 well clear bottom plates (8K cells in 20 μL/well). On the assay day, 20 μL of membrane potential dye (Part No. R8123, Molecular Devices Corp.) was added to the cells and dye was allowed to be taken up, i.e., load, into the cells for 1 hr at 37° C. […] The assay was started by addition of 10 μL of solution from the compound plate into the cell plate. During this process, continuous fluorescent recordings were made simultaneously for all wells. After addition of the compound solution, the tips were automatically washed and a stimulation solution of 3 μM ATP (an agonist for an endogenous purinurgic GPCR, was added to all wells of the cell plate. The height of the response was calculated and percent inhibition values, versus negative control wells, was calculated for the test samples. Unless otherwise indicated, the data in the table below were determined using the three assays described above, providing percent inhibition data at 10 μM.

Structure (SMILES)	pIC50
O=P(c1ccccc1)(c1ccccc1)c1ccccc1 [Example 1]	5.30
O=P(c1ccccc1)(c1ccccc1)c1ccccc1O [Example 2]	5.30
O=P(c1ccccc1)(c1ccccc1)c1ccc(O)cc1 [Example 3]	5.30
Nc1ccccc1P(=O)(c1ccccc1)c1ccccc1 [Example 4]	5.30
COc1ccccc1P(=O)(c1ccccc1)c1ccccc1 [Example 5]	< 4.00
CN(C)c1ccc(P(=O)(c2ccc(N(C)C)cc2)c2ccc(N(C)C)cc2)cc1 [Example 6]	< 4.00
